{
  "source": "paper PMC4078388",
  "about": "(EJNMMI Research, 2014)",
  "origin": "cited, not measured here",
  "test_system": "INS-1 tumour",
  "settings": "Balb/c nude mice, 1 h after injection",
  "source_text": "One additional challenge when imaging β-cells is the limited amount of overall GLP-1 receptors available which requires the administration of low amounts of peptide with a high specific activity in order to avoid receptor blocking [[13]]. One potential way to further increase the specific activity and therefore reduce the amount of tracer necessary to obtain a clear image is to attach several chelators to the peptide allowing more radioactivity per molecule.",
  "data": [
    {"substance": "[Lys^40(^68Ga-DOTA)]exendin-3", "values": [
      {"measurement": "uptake in INS-1 tumour", "value": "8.9 ± 3.1", "unit": "%iA/g"},
      {"measurement": "uptake in the pancreas", "value": "6.7 ± 1.8", "unit": "%iA/g"}
    ]}
  ]
}
